Like-named read-outs stand apart in the source and are kept apart here. Numbered stars: 1 amine (or outer) side, 2 acyl side, 3 side chain; on linkers, the order of the positions; unused ones are H or OH. Bridge positions count the residues as written; N and C are the ends. Square brackets hold non-standard residues; d marks the D form. Peptide text beside a SMILES is read from it. N(6-aminohexyl)Gly = O=C(CN(CCCCCCN[*:3])[*:1])[*:2]; CO = O=C([*:1])[*:2]; Nlys = NCCCCNCC(=O)O
Tests used:
[1] = biological target: T1, α1β1-collagen IV (Homo sapiens, UniProt P05556+P56199); assay: Adhesion of α1-K562 overexpressor cells to immobilized collagen IV; assay type: cell-based
T1 construct: expressed in transfected cells; host or cells: K562 transfected with α1 integrin (gift of Dr. M. Hemler)
Description: (§1) Cell adhesion assay was carried out as previously described[47] with minor modifications. The day before the experiment, each well was coated with VCAM-1 (3 mg/mL) immobilized on the 96-well plate in PBS by overnight incubation at 4 °C. Thereafter, nonspecific binding was blocked by incubating the wells with 1% (w/v) bovine serum albumin (BSA) in Hank’s Balanced Salt Solution (HBSS) containing 5 mM MgCl2 at room temperature for 1 h before use. The cells were labeled by incubation with 12.5 μM 5-chloromethylfluorescein diacetate (CMFDA) in HBSS without 1% BSA at 37 °C for 30 min. The labeled cells were then centrifuged at 1000 rpm and washed twice with HBSS containing 1% BSA to remove excess CMFDA. Labeled cells (about 1 × 10^5 cells/well) were plated on each well in the presence or absence of visabrons and incubated at 37 °C for 60 min. Unbound cells were removed by washing the wells three times with 1% (w/v) BSA in HBSS, and bound cells were lysed by the addition of 0.5% Triton X-100 (diluted in DDW). The fluorescence in each well was quantified with a SPECTRAFluor Plus plate reader (Tecan), at λex = 485 nm and λem = 530 nm. To determine the number of adhered cells from the fluorescence values, a standard curve was generated by serial dilution of known numbers of CMFDA-labeled cells. […]
(§2) Table S6. TMLD- linear peptides inhibition of adhesion of integrin expressing cells to the respective immobilized ligands a a The cells were incubated for 30 min at 37 °C with the cells (1 x 105) in the 96 -well plate, previously covered with extracellular matrix ligand, in 100 µL of HBSS containing calcium and magnesium. After being washed with the same buffer, the adhered cells were lysed by Triton X-100, and the plate was read using Tecan spectrofluorimeter. The inhibitory dose 50% (IC 50) values represent ing mean ± standard deviatio ns (n=6) were calculated from dose response curves. bJurkat cells,VCAM -1; c α9-SW480 overexpressing cells, VCAM-1; d α1-K562 overexpressing cells, collagen IV ;e α2-K562 overexpressing cells, collagen I; f K562 wild type

[2] = biological target: T2, α4β1-VCAM-1 Fc chimera (Homo sapiens, UniProt P05556+P13612); assay: ELISA solid-phase ligand-receptor binding, integrin α4β1 to VCAM-1 Fc chimera
T2 construct: purchased R&D Systems Co (Minneapolis, MN)
Description: (§3) Recombinant human VCAM-1 and MadCAM-1 (3 mg/mL in phosphate-buffered saline containing divalent cations), were immobilized on the wells of a 96-well ELISA plate (Dynatech Immulon) by overnight incubation at 4 °C. After washing with HBSST (Hanks’ Balanced Salt solution containing calcium and magnesium and 0.05% Tween-20) the plates were blocked with 5% BSA in HBSST by incubation at 37 °C for 1 h. The plates were washed with HBSST, and recombinant human integrin α4β1 or α4β7 (3 mg/mL) was added in the presence or absence of competitor cyclic peptides, disintegrins, or monoclonal anti-integrin antibodies dissolved in HBSS containing 1% BSA. The plates were thereafter incubated at 30 °C for 3 h, as time-binding had reached a plateau, and then washed 3 times with HBSST. Bound integrins were quantitated using primary anti-integrin polyclonal and monoclonal antibodies at a concentration of 0.5 mg/mL in HBSST containing 1% BSA, and incubated at 37 °C for 1 h. The plates were washed 3 times with HBSST and secondary antibodies- alkaline phosphatase (AP) conjugated (Sigma Co.) were added at dilution 1:1000 and incubated at 37 °C for 1 h. Thereafter, the plates were washed 3 times with HBSST and twice with HBSS and the alkaline phosphatase substrate 4-nitrophenyl phosphate was added to the wells for 30 min. The plates were read using Tecan Spectrophotometer at 405 nm. The level of nonspecific binding was measured in each experiment by determining the level of binding to wells coated with BSA alone.

[3] = biological target: T3, α4β1 (Jurkat lymphocytes-VCAM-1) (Homo sapiens, UniProt P05556+P13612); assay: Adhesion of Jurkat lymphocytes to immobilized VCAM-1; assay type: cell-based
T3 construct: host or cells: Jurkat (untreated or TNFα-treated)
Description: as §1, §2

[4] = biological target: T4, α2β1-collagen I (Homo sapiens, UniProt P05556+P17301); assay: Adhesion of α2-K562 overexpressor cells to immobilized collagen I; assay type: cell-based
T4 construct: expressed in transfected cells; host or cells: K562 transfected with α2 integrin (gift of Dr. M. Hemler)
Description: as §1, §2

[5] = biological target: T5, α5β1-fibronectin (Homo sapiens, UniProt P05556+P08648); assay: Adhesion of wild-type K562 cells to immobilized fibronectin; assay type: cell-based
T5 construct: host or cells: K562 wild type
Description: as §1, §2

[6] = biological target: α9β1-VCAM-1 Fc chimera (Homo sapiens, UniProt P05556+Q13797); assay: ELISA binding assay, α9β1 to VCAM-1 Fc chimera
[7] = biological target: T6, α9β1 (Homo sapiens, UniProt P05556+Q13797); assay: Adhesion of α9-SW480 overexpressing cells to VCAM-1; assay type: cell-based; settings: n=6, Table S6, read-out: IC50 α9β1 (linear peptides)
T6 construct: generated by transfection with full-length α9 expression plasmid pcDNAIneoa9; expressed in transfected cells; host or cells: SW480 transfected with pcDNAIneoa9
Description: as §2, with “type […]” for “type”
(1 picture or pasted object on this page, not shown here)

[8] = tested on: U937 macrophages-VCAM-1 (α4β1, αMβ2, α3β1, α6β1); assay: Adhesion of U937 macrophages to immobilized VCAM-1; assay type: cell-based, human
Description: Cell adhesion assay was carried out as previously described[47] with minor modifications. The day before the experiment, each well was coated with VCAM-1 (3 mg/mL) immobilized on the 96-well plate in PBS by overnight incubation at 4 °C. Thereafter, nonspecific binding was blocked by incubating the wells with 1% (w/v) bovine serum albumin (BSA) in Hank’s Balanced Salt Solution (HBSS) containing 5 mM MgCl2 at room temperature for 1 h before use. The cells were labeled by incubation with 12.5 μM 5-chloromethylfluorescein diacetate (CMFDA) in HBSS without 1% BSA at 37 °C for 30 min. The labeled cells were then centrifuged at 1000 rpm and washed twice with HBSS containing 1% BSA to remove excess CMFDA. Labeled cells (about 1 × 10^5 cells/well) were plated on each well in the presence or absence of visabrons and incubated at 37 °C for 60 min. Unbound cells were removed by washing the wells three times with 1% (w/v) BSA in HBSS, and bound cells were lysed by the addition of 0.5% Triton X-100 (diluted in DDW). The fluorescence in each well was quantified with a SPECTRAFluor Plus plate reader (Tecan), at λex = 485 nm and λem = 530 nm. To determine the number of adhered cells from the fluorescence values, a standard curve was generated by serial dilution of known numbers of CMFDA-labeled cells.

[9] = biological target: T7, α4β7-MAdCAM-1 Fc chimera (Homo sapiens, UniProt P13612+P26010); assay: ELISA solid-phase ligand-receptor binding, integrin α4β7 to MAdCAM-1 Fc chimera
T7 construct: purchased R&D Systems Co (Minneapolis, MN)
Description: as §3

[10] = α1-K562 overexpressed cells, 30 min at 37 °C, read-out: IC50 α1β1-collagen IV
[11] = Jurkat treated with TNF-α (10 ng/mL) for 24 h, read-out: IC50 Jurkat lymphocytes-VACAM-1 TNFα
[12] = untreated Jurkat lymphocytes (α4β1), read-out: IC50 Jurkat lymphocytes-VACAM-1 control
[13] = α2-K562 overexpressed cells, 30 min at 37 °C, read-out: IC50 α2β1-collagen I
[14] = wild-type K562 (α5β1), 30 min at 37 °C, read-out: IC50 α5β1-fibronectin
[15] = α1-K562 overexpressing cells, collagen IV, n=6, Table S6, read-out: IC50 α1β1 (linear peptides)
[16] = Jurkat cells, VCAM-1, n=6, Table S6, read-out: IC50 α4β1 (linear peptides)
[17] = α2-K562 overexpressing cells, collagen I, n=6, Table S6, read-out: IC50 α2β1 (linear peptides)
[18] = K562 wild type cells, fibronectin, n=6, Table S6, read-out: IC50 α5β1 (linear peptides)

T3 sequence (P13612 34-1032): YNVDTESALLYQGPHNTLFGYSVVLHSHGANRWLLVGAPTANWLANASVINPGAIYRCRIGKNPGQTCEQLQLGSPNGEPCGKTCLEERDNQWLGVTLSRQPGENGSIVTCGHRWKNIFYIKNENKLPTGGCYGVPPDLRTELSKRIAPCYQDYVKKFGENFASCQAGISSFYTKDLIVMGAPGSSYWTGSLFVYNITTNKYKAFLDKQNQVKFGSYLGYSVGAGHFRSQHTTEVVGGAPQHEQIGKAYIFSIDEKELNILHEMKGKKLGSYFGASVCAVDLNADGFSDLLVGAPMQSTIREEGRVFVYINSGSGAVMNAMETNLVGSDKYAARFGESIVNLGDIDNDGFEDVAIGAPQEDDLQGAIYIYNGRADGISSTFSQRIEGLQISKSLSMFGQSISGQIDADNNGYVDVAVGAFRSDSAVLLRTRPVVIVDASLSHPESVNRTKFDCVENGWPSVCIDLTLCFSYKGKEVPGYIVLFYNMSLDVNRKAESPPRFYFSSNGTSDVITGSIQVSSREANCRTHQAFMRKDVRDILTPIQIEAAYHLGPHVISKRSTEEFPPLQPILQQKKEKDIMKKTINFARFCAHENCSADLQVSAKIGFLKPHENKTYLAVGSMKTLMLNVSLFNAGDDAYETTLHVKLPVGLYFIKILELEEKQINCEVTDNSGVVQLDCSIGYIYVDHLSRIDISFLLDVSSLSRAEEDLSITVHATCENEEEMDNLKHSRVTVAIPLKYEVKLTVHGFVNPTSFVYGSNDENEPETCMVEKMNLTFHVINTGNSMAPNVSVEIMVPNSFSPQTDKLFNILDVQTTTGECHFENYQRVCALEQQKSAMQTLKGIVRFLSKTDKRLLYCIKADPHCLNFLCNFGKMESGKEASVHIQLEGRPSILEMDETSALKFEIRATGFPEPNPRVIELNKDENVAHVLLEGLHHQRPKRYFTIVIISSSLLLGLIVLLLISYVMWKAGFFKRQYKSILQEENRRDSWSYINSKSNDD
T3 sequence (P05556 21-798): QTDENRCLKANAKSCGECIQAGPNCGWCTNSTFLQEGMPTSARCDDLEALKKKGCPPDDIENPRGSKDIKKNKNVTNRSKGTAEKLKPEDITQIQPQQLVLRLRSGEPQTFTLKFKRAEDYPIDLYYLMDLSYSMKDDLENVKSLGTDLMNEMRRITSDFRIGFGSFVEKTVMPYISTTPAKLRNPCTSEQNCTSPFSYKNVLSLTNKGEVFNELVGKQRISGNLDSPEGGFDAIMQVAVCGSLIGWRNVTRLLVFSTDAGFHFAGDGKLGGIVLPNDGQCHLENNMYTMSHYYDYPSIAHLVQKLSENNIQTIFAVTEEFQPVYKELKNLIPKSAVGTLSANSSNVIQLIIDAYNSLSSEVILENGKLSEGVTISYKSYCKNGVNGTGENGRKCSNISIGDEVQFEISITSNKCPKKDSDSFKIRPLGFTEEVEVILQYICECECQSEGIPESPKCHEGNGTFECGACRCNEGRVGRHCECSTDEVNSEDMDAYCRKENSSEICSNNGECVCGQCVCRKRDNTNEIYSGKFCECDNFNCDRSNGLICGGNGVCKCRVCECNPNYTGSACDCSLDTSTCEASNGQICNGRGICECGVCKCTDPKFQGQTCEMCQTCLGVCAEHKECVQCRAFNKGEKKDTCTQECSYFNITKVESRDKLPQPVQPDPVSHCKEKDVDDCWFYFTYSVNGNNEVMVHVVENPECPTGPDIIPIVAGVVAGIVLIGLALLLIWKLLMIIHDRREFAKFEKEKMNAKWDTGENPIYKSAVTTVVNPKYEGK
T1 sequence (P56199 29-1179): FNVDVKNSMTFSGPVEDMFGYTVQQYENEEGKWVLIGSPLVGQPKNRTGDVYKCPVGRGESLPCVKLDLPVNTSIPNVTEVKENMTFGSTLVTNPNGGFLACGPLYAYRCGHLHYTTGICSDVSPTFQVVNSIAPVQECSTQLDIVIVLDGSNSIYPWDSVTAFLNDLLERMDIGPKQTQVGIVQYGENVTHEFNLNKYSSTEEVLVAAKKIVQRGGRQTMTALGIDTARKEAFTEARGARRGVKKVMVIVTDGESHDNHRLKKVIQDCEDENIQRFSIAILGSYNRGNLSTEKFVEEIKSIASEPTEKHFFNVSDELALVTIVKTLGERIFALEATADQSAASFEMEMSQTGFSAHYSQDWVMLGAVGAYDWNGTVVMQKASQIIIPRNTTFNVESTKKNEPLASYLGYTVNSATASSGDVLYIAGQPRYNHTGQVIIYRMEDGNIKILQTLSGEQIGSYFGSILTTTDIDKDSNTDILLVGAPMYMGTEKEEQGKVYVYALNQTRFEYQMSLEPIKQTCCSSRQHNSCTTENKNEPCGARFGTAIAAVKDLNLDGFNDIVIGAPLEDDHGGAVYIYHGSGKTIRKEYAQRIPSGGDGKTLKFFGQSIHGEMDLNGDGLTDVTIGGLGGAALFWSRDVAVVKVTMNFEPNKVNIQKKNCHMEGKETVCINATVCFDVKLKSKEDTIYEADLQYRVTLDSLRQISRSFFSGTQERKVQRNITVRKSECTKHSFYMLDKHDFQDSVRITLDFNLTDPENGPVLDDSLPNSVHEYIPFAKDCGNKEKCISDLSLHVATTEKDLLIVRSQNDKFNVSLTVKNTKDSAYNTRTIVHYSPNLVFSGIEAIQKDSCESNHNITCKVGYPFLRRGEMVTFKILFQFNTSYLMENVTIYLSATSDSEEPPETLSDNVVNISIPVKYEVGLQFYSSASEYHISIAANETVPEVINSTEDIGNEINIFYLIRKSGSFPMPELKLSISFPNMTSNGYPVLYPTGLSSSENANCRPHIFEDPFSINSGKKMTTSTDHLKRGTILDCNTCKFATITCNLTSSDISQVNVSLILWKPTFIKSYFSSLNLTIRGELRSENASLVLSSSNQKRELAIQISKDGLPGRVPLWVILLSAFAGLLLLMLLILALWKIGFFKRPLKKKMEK
T1 sequence (P05556 21-798): as the sequence (P05556 21-798) above
T4 sequence (P17301 30-1181): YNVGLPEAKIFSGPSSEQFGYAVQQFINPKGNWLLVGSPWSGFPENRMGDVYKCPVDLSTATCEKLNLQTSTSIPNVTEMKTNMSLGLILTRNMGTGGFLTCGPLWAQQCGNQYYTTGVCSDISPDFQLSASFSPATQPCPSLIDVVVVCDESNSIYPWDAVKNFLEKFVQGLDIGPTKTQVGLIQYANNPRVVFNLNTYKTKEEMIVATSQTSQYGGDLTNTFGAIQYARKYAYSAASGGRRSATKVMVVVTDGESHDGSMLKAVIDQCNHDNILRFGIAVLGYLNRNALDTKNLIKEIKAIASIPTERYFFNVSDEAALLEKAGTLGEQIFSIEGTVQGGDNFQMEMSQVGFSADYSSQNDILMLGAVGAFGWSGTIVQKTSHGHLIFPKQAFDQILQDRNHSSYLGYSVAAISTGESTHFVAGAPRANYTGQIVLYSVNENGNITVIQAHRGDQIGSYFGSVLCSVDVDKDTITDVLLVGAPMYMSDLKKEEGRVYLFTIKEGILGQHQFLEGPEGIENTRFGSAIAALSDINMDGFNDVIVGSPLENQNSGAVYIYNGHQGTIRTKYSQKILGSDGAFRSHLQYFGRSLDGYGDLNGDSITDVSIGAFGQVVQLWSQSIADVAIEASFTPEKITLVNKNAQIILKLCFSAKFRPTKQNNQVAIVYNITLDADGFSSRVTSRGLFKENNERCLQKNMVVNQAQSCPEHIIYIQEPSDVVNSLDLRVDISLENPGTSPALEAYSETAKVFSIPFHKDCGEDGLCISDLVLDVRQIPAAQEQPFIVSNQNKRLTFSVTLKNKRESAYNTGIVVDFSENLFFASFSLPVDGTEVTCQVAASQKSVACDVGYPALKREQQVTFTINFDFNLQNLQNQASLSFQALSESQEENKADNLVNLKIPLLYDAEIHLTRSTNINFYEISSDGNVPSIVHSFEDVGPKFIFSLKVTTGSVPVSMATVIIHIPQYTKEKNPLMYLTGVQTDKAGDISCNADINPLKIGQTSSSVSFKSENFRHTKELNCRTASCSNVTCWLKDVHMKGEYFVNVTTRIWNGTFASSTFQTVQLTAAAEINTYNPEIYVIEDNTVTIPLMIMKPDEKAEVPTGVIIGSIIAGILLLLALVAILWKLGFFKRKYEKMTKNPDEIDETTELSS
T4 sequence (P05556 21-798): as the sequence (P05556 21-798) above

Row | SMILES | IC50 [1, 10] | IC50 [2] | IC50 [3, 11] | IC50 [3, 12] | IC50 [4, 13] | IC50 [5, 14] | IC50 [6] | IC50 [1, 15] | IC50 [3, 16] | IC50 [4, 17] | IC50 [7] | IC50 [5, 18] | IC50 ([8]; U937 treated with PMA (10 ng/mL) for 24 h, read-out: IC50 U937 macrophages-VCAM-1 PMA) | IC50 ([8]; untreated U937, read-out: IC50 U937 macrophages-VCAM-1 control) | IC50 [9]
1 | CSCC[C@@H]1NC(=O)[C@H]([C@@H](C)O)NC(=O)CN(C(=O)[C@@H](N)CCCNC(=N)N)CCCCNC(=O)NCCCCN(CC(=O)N[C@@H](CC(C)C)C(N)=O)C(=O)[C@H](CC(=O)O)NC(=O)[C@H](CC(C)C)NC1=O [Arg-visabron c (4–4)] (H-R[Nlys]TMLD[Nlys]L-NH2; linker 2-7 via CO; N-terminus assumed) | > 10 mM | > 10 mM | > 5 mM | > 5 mM | > 10 mM | > 10 mM | > 10 mM | – | – | – | – | – | – | – | –
2 | CSCC[C@H](NC(=O)[C@@H](NC(=O)[C@H](CCCNC(=N)N)NC(=O)[C@H](CCCCN)NC(=O)[C@@H](N)CS)[C@@H](C)O)C(=O)N[C@@H](CC(C)C)C(=O)N[C@@H](CC(=O)O)C(=O)NCC(=O)N[C@@H](CC(C)C)C(=O)N[C@@H](CC(N)=O)C(=O)N[C@@H](CC(=O)O)C(=O)N[C@@H](Cc1ccc(O)cc1)C(=O)N[C@@H](CS)C(N)=O [sequence 3, CKRTMLDGLNDYC] (H-CKRTMLDGLNDYC-NH2; N-terminus and C-terminus assumed) | – | – | – | – | – | – | – | > 10 mM | 1.45 ± 0.105 mM | > 10 mM | 1.25 ± 0.095 mM | > 10 mM | – | – | –
3 | CSCC[C@H](NC(=O)[C@H](C)NC(=O)[C@H](CCCNC(=N)N)NC(=O)[C@H](CCCCN)NC(=O)[C@@H](N)CS)C(=O)N[C@@H](CC(C)C)C(=O)N[C@@H](CC(=O)O)C(=O)NCC(=O)N[C@@H](CC(C)C)C(=O)N[C@@H](CC(N)=O)C(=O)N[C@@H](CC(=O)O)C(=O)N[C@@H](Cc1ccc(O)cc1)C(=O)N[C@@H](CS)C(N)=O [sequence 4, CKRAMLDGLNDYC] (H-CKRAMLDGLNDYC-NH2; N-terminus and C-terminus assumed) | – | – | – | – | – | – | – | > 10 mM | 3.91 ± 0.08 mM | > 10 mM | 2.84 ± 0.115 mM | > 10 mM | – | – | –
4 | CSCC[C@H](NC(=O)[C@@H](NC(=O)[C@H](CCCNC(=N)N)NC(=O)[C@@H](N)CCCCN)[C@@H](C)O)C(=O)N[C@@H](CC(C)C)C(=O)N[C@@H](CC(=O)O)C(=O)NCC(=O)N[C@@H](CC(C)C)C(N)=O [sequence 5, KRTMLDGL] (H-KRTMLDGL-NH2; N-terminus and C-terminus assumed) | – | – | – | – | – | – | – | > 10 mM | 1.31 ± 0.095 mM | > 10 mM | 1.26 ± 0.08 mM | > 10 mM | – | – | –
5 | CSCC[C@@H]1NC(=O)[C@H]([C@@H](C)O)NC(=O)CN(C(=O)[C@@H](N)CCCCN)CCCCCCNC(=O)NCCCCCCN(CC(=O)N[C@@H](CC(C)C)C(N)=O)C(=O)[C@H](CC(=O)O)NC(=O)[C@H](CC(C)C)NC1=O [visabron c (6–6)] (H-K[N(6-aminohexyl)Gly]TMLD[N(6-aminohexyl)Gly]L-NH2; linker 2-7 via CO) | > 10 mM | 0.0007 mM | 0.004 mM | 0.005 mM | > 10 mM | > 10 mM | 0.0009 mM | – | – | – | – | – | 0.015 mM | 0.02 mM | > 0.5 mM
